Experimental data from ChEMBL document CHEMBL4145540 (Eur J Med Chem, 2018).
Active and inactive are the calls of the source. The rule behind the calls is not given here.

Key:
HT-29 = assay: Antiproliferative activity against human HT-29 cells after 2 days by MTT assay; format: functional, cell-based; conditions: HT-29, 48 h
MCF7 = assay: Antiproliferative activity against human MCF7 cells after 2 days by MTT assay; format: functional, cell-based; conditions: MCF7, 48 h
HeLa = assay: Antiproliferative activity against human HeLa cells after 2 days by MTT assay; format: functional, cell-based; conditions: 48 h
A549 [1] = assay: Antiproliferative activity against human A549 cells after 2 days by MTT assay; format: functional, cell-based; conditions: A549, 48 h
HL-60 = assay: Antiproliferative activity against human HL60 cells after 2 days by MTT assay; format: functional, cell-based; conditions: HL-60, 48 h
HMEC-1 [2] = assay: Antiproliferative activity against HMEC1 cells after 2 days by MTT assay; format: functional, cell-based; conditions: Homo sapiens, HMEC-1, 48 h
HEK293 = assay: Antiproliferative activity against HEK293 cells after 2 days by MTT assay; format: cell-based; conditions: Homo sapiens, HEK293, 48 h
MDA-MB-231 [3] = assay: Antiproliferative activity against human MDA-MB-231 cells after 3 days by coulter counting method; format: functional, cell-based; conditions: MDA-MB-231, 72 h
Bos taurus [4] = organism: Bos taurus; assay: Inhibition of calf brain tubulin polymerization after 60 mins by turbidimetric method
A549 [5] = assay: Disruption of microtubule network in human A549 cells assessed as appearance of tubulin aggregates at 300 nM after 16 hrs by Hoechst staining based immunofluorescence assay; format: cell-based
A549 [6] = assay: Disruption of microtubule network in human A549 cells assessed as appearance of compressed and fragmented nuclei at 300 nM after 16 hrs by Hoechst staining based immunofluorescence assay; format: cell-based
A549 [7] = assay: Cell cycle arrest in human A549 cells assessed as accumulation at sub-G0 phase at 75 nM after 20 hrs by propidium iodide staining based flow cytometry (reference value: 6.6 +/- 0.1%); format: functional
A549 [8] = assay: Cell cycle arrest in human A549 cells assessed as accumulation at G0/G1 phase at 75 nM after 20 hrs by propidium iodide staining based flow cytometry (reference value: 66 +/- 1%); format: functional
A549 [9] = assay: Cell cycle arrest in human A549 cells assessed as accumulation at S phase at 75 nM after 20 hrs by propidium iodide staining based flow cytometry (reference value: 16 +/- 1%); format: functional
A549 [10] = assay: Cell cycle arrest in human A549 cells assessed as accumulation at G2/M phase at 75 nM after 20 hrs by propidium iodide staining based flow cytometry (reference value: 11 +/- 1%); format: functional
A549 [11] = assay: Induction of apoptosis in human A549 cells at 100 nM after 24 hrs by Annexin V-FITC/propidium iodide staining based flow cytometry (reference value: 28%); format: functional
A549 [12] = assay: Induction of apoptosis in human A549 cells at 10 nM after 24 hrs by Annexin V-FITC/propidium iodide staining based flow cytometry (reference value: 28%); format: functional
A549 [13] = assay: Induction of apoptosis in human A549 cells after 24 hrs by Annexin V-FITC/propidium iodide staining based flow cytometry; format: functional, cell-based
MDA-MB-231 [14] = assay: Inhibition of EBI binding to beta-tubulin colchicine binding site in human MDA-MB-231 cells at 3 uM preincubated for 16 hrs followed by EBI addition and measured after 1.5 hrs by Western blot analysis; format: cell-based
A549 [15] = assay: Cell cycle arrest in human A549 cells assessed as accumulation at sub-G0 phase at 70 nM after 20 hrs by propidium iodide staining based flow cytometry (reference value: 6.6 +/- 0.1%); format: functional
A549 [16] = assay: Cell cycle arrest in human A549 cells assessed as accumulation at S phase at 70 nM after 20 hrs by propidium iodide staining based flow cytometry (reference value: 16 +/- 1%); format: functional
A549 [17] = assay: Cell cycle arrest in human A549 cells assessed as accumulation at G2/M phase at 70 nM after 20 hrs by propidium iodide staining based flow cytometry (reference value: 11 +/- 1%); format: functional
HMEC-1 [18] = assay: Vascular disruptive activity in HMEC1 cells assessed as disruption of preformed tubular networks after 4 hrs by matrigel based assay; format: functional, cell-based; conditions: Homo sapiens
Bos taurus [19] = organism: Bos taurus; assay: Inhibition of calf brain tubulin polymerization in glycerol-assembly buffer assessed as critical concentration for tubulin assembly at 27.5 uM measured every 30 secs for 2 hrs in presence of GTP
A549 [20] = assay: Cell cycle arrest in human A549 cells assessed as accumulation at sub-G0 phase at 50 nM after 20 hrs by propidium iodide staining based flow cytometry (reference value: 6.6 +/- 0.1%); format: functional
A549 [21] = assay: Cell cycle arrest in human A549 cells assessed as accumulation at G0/G1 phase at 50 nM after 20 hrs by propidium iodide staining based flow cytometry (reference value: 66 +/- 1%); format: functional
A549 [22] = assay: Cell cycle arrest in human A549 cells assessed as accumulation at S phase at 50 nM after 20 hrs by propidium iodide staining based flow cytometry (reference value: 16 +/- 1%); format: functional
A549 [23] = assay: Cell cycle arrest in human A549 cells assessed as accumulation at G2/M phase at 50 nM after 20 hrs by propidium iodide staining based flow cytometry (reference value: 11 +/- 1%); format: functional
[24] = Selectivity index, ratio of IC50 for antiproliferative activity against HEK293 cells to IC50 for antiproliferative activity against human MCF7 cells; format: toxicity, cell-based; conditions: HEK293 cells versus MCF7 cells, read-out: Ratio IC50
[25] = Selectivity index, ratio of IC50 for antiproliferative activity against HEK293 cells to IC50 for antiproliferative activity against human HT-29 cells; format: toxicity, cell-based; conditions: HEK293 cells versus HT-29 cells, read-out: Ratio IC50
[26] = Selectivity index, ratio of IC50 for antiproliferative activity against HEK293 cells to IC50 for antiproliferative activity against human HeLa cells; format: toxicity, cell-based; conditions: HEK293 cells versus HeLa cells, read-out: Ratio IC50
[27] = Selectivity index, ratio of IC50 for antiproliferative activity against HEK293 cells to IC50 for antiproliferative activity against human HL60 cells; format: toxicity, cell-based; conditions: HEK293 cells versus HL60 cells, read-out: Ratio IC50
A549 [28] = assay: Disruption of microtubule network in human A549 cells assessed as appearance of tubulin aggregates at 200 nM after 16 hrs by Hoechst staining based immunofluorescence assay; format: cell-based
A549 [29] = assay: Disruption of microtubule network in human A549 cells assessed as appearance of compressed and fragmented nuclei at 200 nM after 16 hrs by Hoechst staining based immunofluorescence assay; format: cell-based
A549 [30] = assay: Disruption of microtubule network in human A549 cells assessed as appearance of tubulin aggregates at 150 nM after 16 hrs by Hoechst staining based immunofluorescence assay; format: cell-based
A549 [31] = assay: Disruption of microtubule network in human A549 cells assessed as appearance of compressed and fragmented nuclei at 150 nM after 16 hrs by Hoechst staining based immunofluorescence assay; format: cell-based
A549 [32] = assay: Cell cycle arrest in human A549 cells assessed as accumulation at sub-G0 phase at 40 nM after 20 hrs by propidium iodide staining based flow cytometry (reference value: 6.6 +/- 0.1%); format: functional
A549 [33] = assay: Cell cycle arrest in human A549 cells assessed as accumulation at G0/G1 phase at 40 nM after 20 hrs by propidium iodide staining based flow cytometry (reference value: 66 +/- 1%); format: functional
A549 [34] = assay: Cell cycle arrest in human A549 cells assessed as accumulation at S phase at 40 nM after 20 hrs by propidium iodide staining based flow cytometry (reference value: 16 +/- 1%); format: functional
A549 [35] = assay: Cell cycle arrest in human A549 cells assessed as accumulation at G2/M phase at 40 nM after 20 hrs by propidium iodide staining based flow cytometry (reference value: 11 +/- 1%); format: functional
A549 [36] = assay: Disruption of microtubule network in human A549 cells assessed as appearance of tubulin aggregates at 230 nM after 16 hrs by Hoechst staining based immunofluorescence assay; format: cell-based
A549 [37] = assay: Disruption of microtubule network in human A549 cells assessed as appearance of compressed and fragmented nuclei at 230 nM after 16 hrs by Hoechst staining based immunofluorescence assay; format: cell-based
A549 [38] = assay: Cell cycle arrest in human A549 cells assessed as accumulation at sub-G0 phase at 60 nM after 20 hrs by propidium iodide staining based flow cytometry (reference value: 6.6 +/- 0.1%); format: functional
A549 [39] = assay: Cell cycle arrest in human A549 cells assessed as accumulation at G0/G1 phase at 60 nM after 20 hrs by propidium iodide staining based flow cytometry (reference value: 66 +/- 1%); format: functional
A549 [40] = assay: Cell cycle arrest in human A549 cells assessed as accumulation at S phase at 60 nM after 20 hrs by propidium iodide staining based flow cytometry (reference value: 16 +/- 1%); format: functional
A549 [41] = assay: Cell cycle arrest in human A549 cells assessed as accumulation at G2/M phase at 60 nM after 20 hrs by propidium iodide staining based flow cytometry (reference value: 11 +/- 1%); format: functional

| SMILES | IC50 (HT-29) [nM] | IC50 (MCF7) [nM] | IC50 (HeLa) [nM] | IC50 (A549 [1]) [nM] | IC50 (HL-60) [nM] | IC50 (HMEC-1 [2]) [nM] | IC50 (HEK293) [nM] | IC50 (MDA-MB-231 [3]) [nM] | inhibition (Bos taurus [4]) | Activity (A549 [11]) [%] | Activity (A549 [12]) [%] | Activity (A549 [13]) | Activity (HMEC-1 [18]) | Activity (A549 [20]) [%] | Activity (A549 [21]) [%] | Activity (A549 [22]) [%] | Activity (A549 [23]) [%] | further results |
| --- | --- | --- | --- | --- | --- | --- | --- | --- | --- | --- | --- | --- | --- | --- | --- | --- | --- | --- |
| COc1ccc(/C=C\c2cc(OC)c(OC)c(OC)c2)cc1NC(=O)Oc1cccc(F)c1 | 10.6 | 7 | 2.7 | 150 | 60 | 20 | 13.2 | 14.8 | Active | 67 | 26 | Dose-dependent effect | – | – | – | – | – | Activity (A549 [5]): Active; Activity (A549 [6]): Active; Activity (A549 [7]): 19%; Activity (A549 [8]): 29%; Activity (A549 [9]): 10%; Activity (A549 [10]): 43% |
| COc1ccc(/C=C\c2cc(OC)c(OC)c(OC)c2)cc1NC(=O)Oc1ccc(Cl)c(C)c1 | 11.4 | 8.1 | 3.3 | 140 | 0.4 | 7 | 8.4 | 4 | Active | 90 | 41 | Dose-dependent effect | Dose-dependent effect | – | – | – | – | inhibition (MDA-MB-231 [14]): Active; Activity (A549 [15]): 18%; Activity (A549 [16]): 22%; Activity (A549 [17]): 36% |
| COc1ccc(/C=C\c2cc(OC)c(OC)c(OC)c2)cc1O [COMBRETASTATIN A4] | – | – | 2100 | 130 | 4000 | 3400 | – | – | Active | – | – | – | – | 15 | 21 | 22 | 43 | Activity (Bos taurus [19]): 22 µM |
| COc1ccc(/C=C\c2cc(OC)c(OC)c(OC)c2)cc1NC(=O)Oc1cccc(Cl)c1 | 9.2 | 4.4 | 4.79 | 100 | 13.5 | 9 | 14.5 | 15.1 | Active | 93 | 29 | Dose-dependent effect | – | 16 | 30 | 10 | 44 | selectivity ratio [24]: 2 to 11; selectivity ratio [25]: 2 to 11; selectivity ratio [26]: 2 to 11; selectivity ratio [27]: 2 to 11; Activity (A549 [28]): Active; Activity (A549 [29]): Active |
| COc1ccc(/C=C\c2cc(OC)c(OC)c(OC)c2)cc1NC(=O)Oc1ccccc1 | 2.9 | 9.8 | 4.8 | 77 | 4 | 12 | 3.3 | 11.8 | – | 91 | 45 | Dose-dependent effect | – | – | – | – | – | Activity (A549 [30]): Active; Activity (A549 [31]): Active; Activity (A549 [32]): 20%; Activity (A549 [33]): 21%; Activity (A549 [34]): 15%; Activity (A549 [35]): 44% |
| COc1ccc(/C=C\c2cc(OC)c(OC)c(OC)c2)cc1N | 22 | 8 | 2.6 | 117 | 4.5 | 12 | 7.1 | 12 | Active | 62 | 56 | Dose-dependent effect | Dose-dependent effect | – | – | – | – | Activity (A549 [36]): Active; Activity (A549 [37]): Active; Activity (A549 [38]): 14%; Activity (A549 [39]): 21%; Activity (A549 [40]): 24%; Activity (A549 [41]): 41% |
